Two molecules from ChEMBL document CHEMBL1201862, “PubChem BioAssay data set” (2004) can be followed below.

Test systems include HOP-62; IGROV-1; DU-145; NCI-H23; T47D; U-251; SW-620; UACC-257; RXF 393; EKVX; HOP-92; BT-549; NCI-H226; HCT-15; NCI-H522; MDA-MB-435; K562; 786-0; HL-60; KM12.
Common to all, as to test: NCI-60 cell line screen, 48 h

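All cell lines were grown in 96-well plates and treated with compound for 48 hours. Here, GI50 denotes the concentration required for 50% inhibition of growth.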 Active and inactive are the calls of the source. No stated cut-off is given here; in the data, active = GI50 up to about 1.1 µM and inactive = higher.

For the molecule `C=C(C)C1CCC2(CO)C(O)CC3(C)C(CCC4C5(C)CCC(O)C(C)(C)C5CCC43C)C12` (stereo not given), the GI50 in the assay on HOP-62 was 4.16 µM (inactive); in the assay with IGROV-1, 11.7 µM (inactive); with DU-145, 35.6 µM (inactive); in the assay with NCI-H23 it was > 10 µM (inactive); in the assay on T47D, 1.06 µM (active); in the assay on U-251 it was 2.81 µM (inactive). Also, the GI50 in the assay on SW-620 is 21.8 µM (inactive); in the assay with UACC-257, 10.5 µM (inactive); in the assay on RXF 393 it was 2.32 µM (inactive); with EKVX it was 13.9 µM (inactive); in the assay with HOP-92, 11.4 µM (inactive); with BT-549, 11.6 µM (inactive). Moreover, the GI50 in the assay on NCI-H226 is 34.6 µM (inactive); in the assay on HCT-15, 11.9 µM; in the assay on NCI-H522, 6.58 µM (inactive); with MDA-MB-435, 7.74 µM (inactive); in the assay on K562, 9.77 µM (inactive); in the assay on 786-0, 8.09 µM (inactive). Moreover, the GI50 in the assay with HL-60 was 25.3 µM (inactive); with KM12, 6.97 µM (inactive).

Consider `O=[N+]([O-])C(=C1NCCN1)/C(Cl)=C(\Cl)Br`, for which the GI50 with HOP-62 is > 100 µM (inactive); with IGROV-1, 52.2 µM (inactive); in the assay on DU-145 it was > 100 µM (inactive); in the assay on NCI-H23, > 49.8 µM (inactive); in the assay on T47D, 17.5 µM (inactive); in the assay on U-251, 49.3 µM (inactive). Also, the GI50 in the assay with SW-620 is 13.5 µM (inactive); with UACC-257, > 49.8 µM (inactive); with RXF 393 it was 14.1 µM (inactive); with EKVX, > 43.4 µM (inactive); in the assay on HOP-92, 34.4 µM (inactive); in the assay with BT-549, 36.1 µM (inactive). In addition, the GI50 is > 81.8 µM (inactive) with NCI-H226; 4.98 µM in the assay on HCT-15; 19.1 µM (inactive) with NCI-H522; 29.4 µM (inactive) in the assay with MDA-MB-435; 5.33 µM (inactive) in the assay with K562; 17.6 µM (inactive) with 786-0. The GI50 with HL-60 is 10.6 µM (inactive); in the assay on KM12, > 100 µM (inactive).
